This is an account of results in article PMC3990405 (Journal of controlled release : official journal of the …, 2013).

The AUC is concentration integrated over time. As a reminder, the Tmax is the time at which the peak concentration occurs. The IC50 is the concentration that inhibits the measured activity by half. Low values mean greater potency in that assay, high ones weaker potency in that assay.

The nature of series [1]: Plasma pharmacokinetics after i.m. injection proximal to the sciatic nerve. Format: in vivo, C57BL/6 mice.
The subject of a further series is phosphorylated NF-κB p65. The experiment in a line: TNF-induced NF-κB p65 phosphorylation in U937 monocytes. Format: cell-based, human.
Series [2] is classed as in vivo, C57BL/6 mice.
The test system of series [3] is TNFα-induced cytotoxicity in L929 fibrosarcoma cells. The experiment in a line: L929 cytoprotection assay against TNFα. Type of series: cell-based, murine.
In the next series the test system is L929 cells. Briefly: L929 cell proliferation / cytotoxicity without TNFα. As to conditions: curcumin in DMSO; not shown. Type of series: cell-based, murine.
The mark [4] stands for this setting: female, C57BL/6, mouse, plasma, im, 40 μl of 6 mM.

Like-named read-outs stand apart in the source and are kept apart here.

`COc1cc(/C=C/C(=O)CC(=O)/C=C/c2ccc(O)c(OC)c2)ccc1O` [curcumin] registered an AUC in series [1] (setting [4]) of 0.87 ± 0.13 µM·h. Further, the Tmax in series [1] (setting [4]) was in the range of 1 to 2 h. For the same compound, the “time window with plasma curcumin significantly above naïve plasma” value in series [1] (mouse, i.m., one-way ANOVA p < 0.0001) lay within 0.5 to 4 h. In addition, in the series with phosphorylated NF-κB p65 (high (5 μM) and low (0.5 μM) doses, 50 ng/ml TNFα 10 min), the “attenuation of TNF-induced increases in NF-kB phosphorylation” value is “able to attenuate TNF-induced increases in NF-kB phosphorylation in a dose-dependent manner”. The “effect on basal NF-kB phosphorylation” value in the series with phosphorylated NF-κB p65 (high (5 μM) and low (0.5 μM) doses, no TNFα) was “no statistically significant effect”. Besides, the “attenuation of TNF-induced monocyte NF-κB activation” value in the series on phosphorylated NF-κB p65 (high micromolar dose (5 μM), 2 h pre-incubation, 50 ng/ml TNFα 10 min) is recorded as “equally attenuated”. The “Mass of curcumin in injection-site tissue” value in series [2] (0 h, maximum recoverable, injected after sacrifice, n = 1) was found to be 158 nmol; in series [2] (2 h, mean ± SEM) it was 98 ± 24 nmol; in series [2] (48 h, mean ± SEM), 0.67 ± 0.004 nmol; in series [2] (96 h, mean ± SEM) it was 0.39 ± 0.12 nmol. The “%ID (nmol/nmol) at injection site” value in series [2] (0 h, maximum recoverable, n = 1) is 59 %ID; in series [2] (2 h, mean ± SEM) it was 36 ± 8.9 %ID; in series [2] (48 h, mean ± SEM), 0.25 ± 0.002 %ID; in series [2] (96 h, mean ± SEM), 0.14 ± 0.04 %ID. Moreover, in series [3] (Mus musculus, L929, 24 h), the concentration for half-maximal inhibition (IC50) was 13.5 µM. Moreover, in series [3] (logistic fit, Equation 1), the “Hill slope, k” value came to 1.472. Moreover, the “dose with some cytotoxic effects” value in the series with L929 cells was “above 30 μM”.
